The text below walks through data of US8299296B2, “Spiro compounds and pharmaceutical use thereof” (Japan Tobacco Inc., priority 2007, dated 2012).

Molecules are shown by their SMILES. pEC50: −log10 of the molar value. Where a name gives a salt, the structure may show the parent alone. Where only a bound is given, the exact number is not on record here.

Usually pEC50 stands for −log10 of the EC50, conventionally taken in molar units.

In the test the target is T1, human GPR40 (Homo sapiens, UniProt O14842).
T1 construct: expressed in transfected cells
T1 sequence (O14842 whole entry): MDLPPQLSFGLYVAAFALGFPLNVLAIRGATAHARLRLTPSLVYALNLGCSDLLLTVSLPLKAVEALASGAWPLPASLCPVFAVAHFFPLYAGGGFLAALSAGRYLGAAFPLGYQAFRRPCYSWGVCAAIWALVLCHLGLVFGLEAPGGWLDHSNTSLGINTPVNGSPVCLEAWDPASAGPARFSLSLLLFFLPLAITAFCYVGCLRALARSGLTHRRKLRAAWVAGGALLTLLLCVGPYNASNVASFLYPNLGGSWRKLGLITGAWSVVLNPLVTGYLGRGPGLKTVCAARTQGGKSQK
As to the kind of experiment: Ca2+ mobilization (FLIPR) in a stable GPR40-expressing cell; GPR40 agonist activity. Conditions: compound concentration corresponding to 50% PosiC, 100% = intracellular calcium level induced by 80 μM palmitic acid. Type of test: cell-based. Here is the method:
Evaluation of effect of test compounds on Ca^2+ mobilization by using a stable GPR40-expressing cell A stable human GPR40-expressing HEK293 cell was used. A cell suspension was prepared such that the above-mentioned cells were present at 6×10^5 cells/mL in a cell culture medium (D-MEM (Nikken Bio Medical Laboratory) supplemented with 10% (v/v) fetal bovine serum (Biowest) and 1% (v/v) penicillin-streptomycin solution (Invitrogen)). The cell suspension was plated in a 384-well plate (poly-D-lysine coated plate; Falcon) in a volume of 25 μl/well, and the plate was incubated at 37° C. in an atmosphere of 5% CO2 overnight. Each test compound was added to the cell at each concentration as below, and then the change in intracellular calcium level was measured by FLIPR^TETRA (Molecular Devices). Before the FLIPR assay, the following preparative solutions were prepared. First, an assay buffer was prepared for use in the preparation of a fluorescent dye solution and a diluent buffer solution. The assay buffer was prepared by adding 1M HEPES solution (Invitrogen) to Hanks' Balanced Salt Solution (Invitrogen), followed by adjusting the pH to 7.4 with 1M NaOH (Nacalai Tesque). Next, the fluorescent dye solution and the diluent buffer solution were prepared. The fluorescent dye solution was prepared in accordance with the instruction manual attached to Fluo-4NW calcium assay kit (Invitrogen), followed by addition of bovine serum albumin (Sigma) to a final concentration of 0.1% (w/v). The diluent buffer solution was prepared by adding bovine serum albumin (Sigma) to the assay buffer to give a final concentration of 0.1% (w/v). After removing a medium supernatant from the cell culture plate incubated overnight, the fluorescent dye solution was added to the plate in a volume of 25 μl/well. The plate was incubated at 37° C. in an atmosphere of 5% CO2 for 90 minutes to promote the fluorescent dye uptake in the cell. Meanwhile, the test compounds (i.e., the compounds prepared in Examples) dissolved in dimethyl sulfoxide (DMSO; Nacalai Tesque) were diluted with the diluent buffer solution, to prepare each compound solution at each concentration. In addition, a palmitic acid solution was prepared as a positive control solution (hereinafter abbreviated as PosiC). A 40 μl aliquot of each sample solution prepared as above was added to each well of a 384-well polypropylene plate to prepare a compound plate. Finally, after the sufficient uptake of the fluorescent dye in the cell, the cell plate and the compound plate were set to FLIPR^TETRA. After the above pretreatment, the change in intracellular calcium level was measured by FLIPR^TETRA upon addition of 25 μl of each test compound solution at each concentration. The GPR40 agonist activity of each test compound at each concentration was determined as a relative activity level (% PosiC) with the intracellular calcium level induced by 80 μM palmitic acid (a GPR40 agonist) set to 100%. Next, each compound concentration corresponding to 50% PosiC was calculated based on the % PosiC value, to compare between agonist activities of the test compounds. In the tables, “++++” indicates 0.01 μM or more but less than 0.1 μM, “+++” indicates 0.1 μM or more but less than 1 μM, “++” indicates 1 μM or more but less than 10 μM, and “+” indicates 10 μM or more for 50% posiC value. In the tables, “N.T.” indicates “not tested”.
Background: Calcium assays in cells follow changes in intracellular calcium, usually with a dye or a luminescent sensor.
Take `CC#C[C@@H](CC(=O)O)c1ccc(OCC2CCC3(CCCCC3)CC2)cc1` [Example 24, (S)-3-[4-(spiro[5.5]undec-3-ylmethoxy)-phenyl]-hex-4-ynoic acid]: the pEC50 was 6.00 to 7.00.
As to `CC#C[C@@H](CC(=O)O)c1ccc(OCC2=CCC3(CCCC3)CC2)cc1` [Example 25, (S)-3-[4-(spiro[4.5]dec-7-en-8-ylmethoxy)-phenyl]-hex-4-ynoic acid], the pEC50 is 6.00 to 7.00.
Regarding `CC#C[C@@H](CC(=O)O)c1ccc(OCC2CCC3(CCCCC3)C2)cc1` (stereo partly drawn) [Example 27, (3S)-3-[4-(spiro[4.5]dec-2-ylmethoxy)-phenyl]-hex-4-ynoic acid sodium salt], the pEC50 is 6.00 to 7.00.
In the case of `CC#C[C@@H](CC(=O)O)c1ccc(OCC2CCCC3(CCCCC3)C2)cc1` (stereo partly drawn) [Example 29, (3S)-3-[4-(spiro[5.5]undec-2-ylmethoxy)-phenyl]-hex-4-ynoic acid sodium salt] it was 6.00 to 7.00; in that of `O=C(O)CCc1ccc(OCC2CCC3(CCCCC3)CC2)cc1` [Example 57, 3-[4-(spiro[5.5]undec-3-ylmethoxy)-phenyl]-propionic acid], 5.00 to 6.00.
As for `CC#C[C@@H](CC(=O)O)c1ccc(OC2CCC3(CCCCC3)CC2)cc1` [Example 63, (3S)-3-[4-(spiro[5.5]undec-3-yloxy)-phenyl]-hex-4-ynoic acid], the pEC50 was 6.00 to 7.00.
In the case of `CC#C[C@@H](CC(=O)O)c1ccc(OCC2=CCC3(CCCCC3)CC2)cc1` [Example 73, (3S)-3-[4-(spiro[5.5]undec-2-en-3-ylmethoxy)-phenyl]-hex-4-ynoic acid] it was 6.00 to 7.00; in that of `CC#C[C@H](CC(=O)O)c1ccc(OCC2=CC3(CCCC3)CCC2)cc1` [Example 94, (R)-3-[4-(spiro[4.5]dec-6-en-7-ylmethoxy)-phenyl]-hex-4-ynoic acid L-lysine salt], 5.00 to 6.00; in that of `CC#C[C@@H](CC(=O)O)c1ccc(OCC2=C[C@@]3(CCC2)CCC(=O)C3)cc1` [Example 97, (3S)-3-[4-((5S)-2-oxo-spiro[4.5]dec-6-en-7-ylmethoxy)-phenyl]-hex-4-ynoic acid sodium salt], 6.00 to 7.00.
Regarding `CC#C[C@@H](CC(=O)O)c1ccc(OCC2=C[C@@]3(CCC2)CC[C@H](O)C3)cc1` [Example 99, (3S)-3-[4-((2S,5S)-2-hydroxy-spiro[4.5]dec-6-en-7-ylmethoxy)-phenyl]-hex-4-ynoic acid sodium salt], the pEC50 is 5.00 to 6.00.
As to `CC#C[C@@H](CC(=O)O)c1ccc(OCC2=C[C@@]3(CCC2)CC[C@@H](O)C3)cc1` [Example 101, (3S)-3-[4-((2R,5S)-2-hydroxy-spiro[4.5]dec-6-en-7-ylmethoxy)-phenyl]-hex-4-ynoic acid sodium salt], the pEC50 is 6.00 to 7.00.
Then `CC#C[C@@H](CC(=O)O)c1ccc(OCC2=C[C@]3(CCC2)CCC(=O)C3)cc1` [Example 103, (3S)-3-[4-((5R)-2-oxo-spiro[4.5]dec-6-en-7-ylmethoxy)-phenyl]-hex-4-ynoic acid sodium salt], with 6.00 to 7.00; and `CC#C[C@@H](CC(=O)O)c1ccc(OCC2=C[C@]3(CCC2)CC[C@@H](O)C3)cc1` [Example 105, (3S)-3-[4-((2R,5R)-2-hydroxy-spiro[4.5]dec-6-en-7-ylmethoxy)-phenyl]-hex-4-ynoic acid sodium salt], with 5.00 to 6.00.
Then `CC#C[C@@H](CC(=O)O)c1ccc(OCC2=C[C@]3(CCC2)CC[C@H](O)C3)cc1` [Example 107, (3S)-3-[4-((2S,5R)-2-hydroxy-spiro[4.5]dec-6-en-7-ylmethoxy)-phenyl]-hex-4-ynoic acid sodium salt], with 6.00 to 7.00; and `O=C(O)CCc1ccc(OCC2=CC3(CCCC3)CCC2)cc1Cl` [Example 108, 3-[2-chloro-4-(spiro[4.5]dec-6-en-7-ylmethoxy)-phenyl]-propionic acid], with 5.00 to 6.00; and `Cc1cc(OCC2=CC3(CCCC3)CCC2)ccc1CCC(=O)O` [Example 109, 3-[2-methyl-4-(spiro[4.5]dec-6-en-7-ylmethoxy)-phenyl]-propionic acid], with 5.00 to 6.00.
In the case of `O=C(O)CCc1ccc(OCC2=CC3(CCCC3)CCC2)c(O)c1` [Example 110, 3-[3-hydroxy-4-(spiro[4.5]dec-6-en-7-ylmethoxy)-phenyl]-propionic acid] it was 6.00 to 7.00; in that of `COc1cc(CCC(=O)O)ccc1OCC1=CC2(CCCC2)CCC1` [Example 111, 3-[3-methoxy-4-(spiro[4.5]dec-6-en-7-ylmethoxy)-phenyl]-propionic acid], not above 5.00; in that of `O=C(O)CCc1ccc(OCC2=CC3(CCCC3)CCC2)c(F)c1` [Example 112, 3-[3-fluoro-4-(spiro[4.5]dec-6-en-7-ylmethoxy)-phenyl]-propionic acid], not above 5.00.
For `O=C(O)CCc1ccc(OCC2=CC3(CCC3)CC2)cc1` [Example 117, 3-[4-(spiro[3.4]oct-5-en-6-ylmethoxy)-phenyl]-propionic acid], the pEC50 was 5.00 to 6.00.
For `CC#C[C@@H](CC(=O)O)c1ccc(OCC2=CCCC3(CCCCC3)C2)cc1` [Example 119, (S)-3-[4-(spiro[5.5]undec-2-en-2-ylmethoxy)-phenyl]-hex-4-ynoic acid L-lysine salt], the pEC50 is 6.00 to 7.00.
